Assay results taken from ChEMBL document CHEMBL1201862, “PubChem BioAssay data set” (2004).
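Grown in 96-well plates, cells were treated for 48 hours with each compound at five concentrations. Insufficient inhibition: endpoint recorded as highest concentration tested. GI50 = concentration required for 50% inhibition of growth.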 Activity calls are given as the source filed them. Cut-off read from the data, not from the text of the source: active = GI50 up to about 1.1 µM and inactive = higher.

How the values were obtained:
Assay in all cases: growth of human tumour cells (NCI), 48 h
CAKI-1 = test system: CAKI-1
CCRF-CEM = test system: CCRF-CEM
COLO 205 = test system: COLO 205
HCT-116 = test system: HCT-116
HCT-15 = test system: HCT-15
LOX IMVI = test system: LOX IMVI
MCF7 = test system: MCF7
MDA-N = test system: MDA-N
NCI-H226 = test system: NCI-H226
NCI-H23 = test system: NCI-H23
NCI-H460 = test system: NCI-H460
NCI/ADR-RES = test system: NCI/ADR-RES
OVCAR-5 = test system: OVCAR-5
OVCAR-8 = test system: OVCAR-8
RPMI-8226 = test system: RPMI-8226
SF-268 = test system: SF-268
SK-MEL-2 = test system: SK-MEL-2
SK-MEL-5 = test system: SK-MEL-5
SK-OV-3 = test system: SK-OV-3
SW-620 = test system: SW-620

| Structure (SMILES) | GI50 (CAKI-1) | GI50 (CCRF-CEM) | GI50 (COLO 205) | GI50 (HCT-116) | GI50 (HCT-15) | GI50 (LOX IMVI) | GI50 (MCF7) | GI50 (MDA-N) | GI50 (NCI-H226) | GI50 (NCI-H23) | GI50 (NCI-H460) | GI50 (NCI/ADR-RES) | GI50 (OVCAR-5) | GI50 (OVCAR-8) | GI50 (RPMI-8226) | GI50 (SF-268) | GI50 (SK-MEL-2) | GI50 (SK-MEL-5) | GI50 (SK-OV-3) | GI50 (SW-620) |
| --- | --- | --- | --- | --- | --- | --- | --- | --- | --- | --- | --- | --- | --- | --- | --- | --- | --- | --- | --- | --- |
| CC(=O)NC(Cc1c[nH]c2ccccc12)C(=O)O (stereo not given) | > 100 µM (inactive) | > 100 µM (inactive) | > 100 µM (inactive) | > 100 µM (inactive) | > 100 µM | > 100 µM (inactive) | > 100 µM (inactive) | > 100 µM (inactive) | > 100 µM (inactive) | > 100 µM (inactive) | > 100 µM (inactive) | > 100 µM (inactive) | > 100 µM (inactive) | > 100 µM (inactive) | > 100 µM (inactive) | > 100 µM (inactive) | > 100 µM (inactive) | > 100 µM (inactive) | > 100 µM (inactive) | > 100 µM (inactive) |
| COC(=O)c1ccc(NC(=O)O/N=C(\Cl)C(C)C)cc1 | 1.69 µM (inactive) | 0.466 µM (active) | 1.94 µM (inactive) | 5.61 µM (inactive) | 1.83 µM | 1.74 µM (inactive) | 5.7 µM (inactive) | 8.89 µM (inactive) | 18.9 µM (inactive) | 17.1 µM (inactive) | 20.9 µM (inactive) | 5.71 µM (inactive) | 17.1 µM (inactive) | 14 µM (inactive) | 1.83 µM (inactive) | 26.2 µM (inactive) | 16.8 µM (inactive) | 4.53 µM (inactive) | 17.8 µM (inactive) | 1.93 µM (inactive) |
| CSc1c2c(C)n[nH]c2nn1-c1ccccc1 | 21.1 µM (inactive) | 33 µM (inactive) | 62.2 µM (inactive) | 45.4 µM (inactive) | 37.2 µM | 24.1 µM (inactive) | 92 µM (inactive) | > 100 µM (inactive) | 58.5 µM (inactive) | > 100 µM (inactive) | > 100 µM (inactive) | > 100 µM (inactive) | > 100 µM (inactive) | 27.4 µM (inactive) | > 100 µM (inactive) | 57.8 µM (inactive) | > 100 µM (inactive) | > 100 µM (inactive) | > 100 µM (inactive) | 57.1 µM (inactive) |
| O=c1oc2ccccc2c(Nc2ccc3c(c2)S(=O)(=O)c2ccccc2O3)c1[N+](=O)[O-] | 17.8 µM (inactive) | 23.6 µM (inactive) | 22.3 µM (inactive) | 23.7 µM (inactive) | 25.8 µM | 27 µM (inactive) | 21.8 µM (inactive) | 22.5 µM (inactive) | 25.7 µM (inactive) | 23.5 µM (inactive) | 25.5 µM (inactive) | 34.4 µM (inactive) | 70 µM (inactive) | 25.2 µM (inactive) | 19.5 µM (inactive) | 33.8 µM (inactive) | 19.3 µM (inactive) | 20.1 µM (inactive) | 24 µM (inactive) | 32.8 µM (inactive) |
| O=C(O)c1ccc(Nc2ccnc3cc(Cl)ccc23)cc1O | > 100 µM (inactive) | > 100 µM (inactive) | > 100 µM (inactive) | > 100 µM (inactive) | > 100 µM | > 100 µM (inactive) | > 100 µM (inactive) | > 100 µM (inactive) | > 100 µM (inactive) | > 100 µM (inactive) | > 100 µM (inactive) | > 100 µM (inactive) | > 100 µM (inactive) | > 100 µM (inactive) | > 100 µM (inactive) | > 100 µM (inactive) | > 100 µM (inactive) | > 100 µM (inactive) | > 100 µM (inactive) | > 100 µM (inactive) |
| C[C@H](CCC(=O)NCCS(=O)(=O)O)[C@H]1CC[C@H]2[C@@H]3CC[C@@H]4C[C@H](O)CC[C@]4(C)[C@H]3CC[C@]12C | > 100 µM (inactive) | > 100 µM (inactive) | > 100 µM (inactive) | > 100 µM (inactive) | > 100 µM | > 100 µM (inactive) | > 100 µM (inactive) | > 100 µM (inactive) | > 100 µM (inactive) | > 100 µM (inactive) | > 100 µM (inactive) | > 100 µM (inactive) | > 100 µM (inactive) | > 100 µM (inactive) | > 100 µM (inactive) | > 100 µM (inactive) | > 100 µM (inactive) | > 100 µM (inactive) | > 100 µM (inactive) | > 100 µM (inactive) |
